Target: LSD-1 enzyme (Homo sapiens (Human), UniProt O60341)
Assay: LANCE LSD1/KDM1A demethylase assay (LSD1 histone demethylase biochemical assay)
Conditions: 1 nM LSD-1 enzyme, 1 hour preincubation at 25° C., 0.4 μM biotin-labeled Histone H3 peptide substrate
Protocol: LANCE LSD1/KDM1A demethylase assay—10 μL of 1 nM LSD-1 enzyme (ENZO BML-SE544-0050) in the assay buffer (50 mM Tris, pH 7.5, 0.01% Tween-20, 25 mM NaCl, 5 mM DTT) were preincubated for 1 hour at 25° C. with 0.8 μL compound/DMSO dotted in black 384 well polystyrene plates. […] After stopping the reactions plates were incubated for 30 minutes and read on a PHERAstar FS plate reader (BMG Labtech).

| SMILES | IC50 [nM] |
| --- | --- |
| N#CCC1(N2CCC(N[C@@H]3C[C@H]3c3ccccc3)CC2)CN(C(=O)c2nccs2)C1 [Example 120, [3-(4-{[(1R,2S)-2-phenylcyclopropyl]amino}piperidin-1-yl)-1-(1,3-thiazol-2-ylcarbonyl)azetidin-3-yl]acetonitrile] | ≤ 100 |
| CNC(=O)CC1(N2CCC(C)(CN[C@@H]3C[C@H]3c3ccccc3)CC2)CCC1 [Example 57, N-methyl-2-{1-[4-methyl-4-({[(1R,2S)-2-phenylcyclopropyl]amino}methyl)piperidin-1-yl]cyclobutyl}acetamide] | ≤ 100 |
| N#CCC1(N2CCC(N[C@@H]3C[C@H]3c3ccccc3)CC2)CN(C2CC(O)C2)C1 (stereo partly drawn) [Example 106, [1-(3-hydroxycyclobutyl)-3-(4-{[(1R,2S)-2-phenylcyclopropyl]amino}piperidin-1-yl)azetidin-3-yl]acetonitrile] | ≤ 100 |
| N#CCC1(N2CCC(CN[C@@H]3C[C@H]3c3ccccc3)CC2)CNC1 (relative stereo) [Example 33, [3-(4-{[(trans-2-Phenylcyclopropyl)amino]methyl}piperidin-1-yl)azetidin-3-yl]acetonitrile] | ≤ 100 |
| N#CCC1(N2CCC(N[C@@H]3C[C@H]3c3ccccc3)CC2)CN(C2CCOC2)C1 (stereo partly drawn) [Example 76, [3-(4-{[(1R,2S)-2-phenylcyclopropyl]amino}piperidin-1-yl)-1-(tetrahydrofuran-3-yl)azetidin-3-yl]acetonitrile] | ≤ 100 |
| N#CCC1(N2CCC(CN[C@@H]3C[C@H]3c3ccccc3)CC2)CN(C(=O)Nc2ccc(F)cc2F)C1 (relative stereo) [Example 42, 3-(Cyanomethyl)-N-(2,4-difluorophenyl)-3-(4-{[(trans-2-phenylcyclopropyl)amino]methyl}piperidin-1-yl)azetidine-1-carboxamide] | ≤ 100 |
| N#CCC1(N2CCC(CN[C@@H]3C[C@H]3c3ccccc3)CC2)CN(c2ccc(C#N)cc2)C1 (relative stereo) [Example 40, 4-[3-(Cyanomethyl)-3-(4-{[(trans-2-phenylcyclopropyl)amino]methyl}piperidin-1-yl)azetidin-1-yl]benzonitrile] | ≤ 100 |
| CC(C)NC(=O)c1cc(F)c(N2CC(CC#N)(N3CCC(CN[C@@H]4C[C@H]4c4ccccc4)CC3)C2)cc1F (relative stereo) [Example 35, 4-[3-(Cyanomethyl)-3-(4-{[(trans-2-phenylcyclopropyl)amino]methyl}piperidin-1-yl)azetidin-1-yl]-2,5-difluoro-N-isopropylbenzamide] | ≤ 100 |
| CCN1CC(CC(=O)O)(N2CCC(N[C@@H]3C[C@H]3c3ccccc3)CC2)C1 [Example 67, [1-ethyl-3-(4-{[(1R,2S)-2-phenylcyclopropyl]amino}piperidin-1-yl)azetidin-3-yl]acetic acid] | ≤ 100 |
| N#CCC1(N2CC(CN[C@@H]3C[C@H]3c3ccccc3)C2)CCC1 (relative stereo) [Example 14, [1-(3-{[(trans-2-Phenylcyclopropyl)amino]methyl}azetidin-1-yl)cyclobutyl]acetonitrile] | ≤ 100 |
| N#CCC1(N2CCC(N[C@@H]3C[C@H]3c3ccccc3)CC2)CN(C(=O)c2cscn2)C1 [Example 119, [3-(4-{[(1R,2S)-2-phenylcyclopropyl]amino}piperidin-1-yl)-1-(1,3-thiazol-4-ylcarbonyl)azetidin-3-yl]acetonitrile] | ≤ 100 |
| COCC1(CN[C@@H]2C[C@H]2c2ccccc2)CCN(C2(CC(=O)O)CCC2)CC1 [Example 54, {1-[4-(methoxymethyl)-4-({[(1R,2S)-2-phenylcyclopropyl]amino}methyl)piperidin-1-yl]cyclobutyl}acetic acid] | ≤ 100 |
| COC(=O)N1CC(CC#N)(N2CCC(N[C@@H]3C[C@H]3c3ccccc3)CC2)C1 (relative stereo) [Example 8, Methyl 3-(cyanomethyl)-3-{4-[(trans-2-phenylcyclopropyl)amino]piperidin-1-yl}azetidine-1-carboxylate] | ≤ 100 |
| CNC(=O)CC1(N2CCC(CN[C@@H]3C[C@H]3c3ccccc3)CC2)CNC1 (relative stereo) [Example 51, N-Methyl-2-(3-(4-((trans-2-phenylcyclopropylamino)methyl)piperidin-1-yl)azetidin-3-yl)acetamide] | ≤ 100 |
| O=C(O)CC1(N2CCC(CN[C@@H]3C[C@H]3c3ccccc3)(Cc3ccc(F)cc3)CC2)CCC1 [Example 53, {1-[4-(4-fluorobenzyl)-4-({[(1R,2S)-2-phenylcyclopropyl]amino}methyl)piperidin-1-yl]cyclobutyl}acetic acid] | ≤ 100 |
| COC(=O)N1CC(CC#N)(N2CCC(CN[C@@H]3C[C@H]3c3ccccc3)CC2)C1 (relative stereo) [Example 41, Methyl 3-(cyanomethyl)-3-(4-{[(trans-2-phenylcyclopropyl)amino]methyl}piperidin-1-yl)azetidine-1-carboxylate] | ≤ 100 |

| SMILES | IC50 [nM] |
| --- | --- |
| N#CCC1(N2CCC(N[C@@H]3C[C@H]3c3ccccc3)CC2)CN(C(=O)OC2CCOC2)C1 (stereo partly drawn) [Example 99, tetrahydrofuran-3-yl 3-(cyanomethyl)-3-(4-{[(1R,2S)-2-phenylcyclopropyl]amino}piperidin-1-yl)azetidine-1-carboxylate] | ≤ 100 |
| Cn1cc(N2CC(CC#N)(N3CCC(N[C@@H]4C[C@H]4c4ccccc4)CC3)C2)cn1 [Example 98, [1-(1-methyl-1H-pyrazol-4-yl)-3-(4-{[(1R,2S)-2-phenylcyclopropyl]amino}piperidin-1-yl)azetidin-3-yl]acetonitrile] | ≤ 100 |
| N#CCC1(N2CCC(N[C@@H]3C[C@H]3c3ccccc3)CC2)CN(C(=O)[C@H]2CC[C@@H](O)CC2)C1 [Example 83, [1-[(cis-4-hydroxycyclohexyl)carbonyl]-3-(4-{[(1R,2S)-2-phenylcyclopropyl]amino}piperidin-1-yl)azetidin-3-yl]acetonitrile] | ≤ 100 |
| N#CC1(c2ccccc2)CCC(N2CC(CNC3CC3c3ccccc3)C2)CC1 (stereo not drawn) [Example 30, 1-Phenyl-4-(3-{[(trans-2-phenylcyclopropyl)amino]methyl}azetidin-1-yl)cyclohexanecarbonitrile] | ≤ 100 |
| CNC(=O)CC1(N2CCC(N[C@@H]3C[C@H]3c3ccccc3)CC2)CN(S(C)(=O)=O)C1 [Example 91, N-methyl-2-[1-(methylsulfonyl)-3-(4-{[(1R,2S)-2-phenylcyclopropyl]amino}piperidin-1-yl)azetidin-3-yl]acetamide] | ≤ 100 |
| N#CCC1(N2CC(CN[C@@H]3C[C@H]3c3ccccc3)C2)CCN(C(=O)Nc2ccc(F)cc2)CC1 (relative stereo) [Example 25, 4-(Cyanomethyl)-N-(4-fluorophenyl)-4-(3-{[(trans-2-phenylcyclopropyl)amino]methyl}azetidin-1-yl)piperidine-1-carboxamide] | ≤ 100 |
| CNC(=O)CC1(N2CCC(N[C@@H]3C[C@H]3c3ccccc3)CC2)CCC1 [Example 69, N-methyl-2-[1-(4-{[(1R,2S)-2-phenylcyclopropyl]amino}piperidin-1-yl)cyclobutyl]acetamide] | ≤ 100 |
| Cn1nccc1C(=O)N1CC(CC#N)(N2CCC(N[C@@H]3C[C@H]3c3ccccc3)CC2)C1 [Example 81, [1-[(1-methyl-1H-pyrazol-5-yl)carbonyl]-3-(4-{[(1R,2S)-2-phenylcyclopropyl]amino}piperidin-1-yl)azetidin-3-yl]acetonitrile] | ≤ 100 |
| N#CCC1(N2CCC(N[C@@H]3C[C@H]3c3ccccc3)CC2)CN(C(=O)[C@H]2CCCO2)C1 [Example 117, {3-(4-{[(1R,2S)-2-phenylcyclopropyl]amino}piperidin-1-yl)-1-[(2R)-tetrahydrofuran-2-ylcarbonyl]azetidin-3-yl}acetonitrile] | ≤ 100 |
| N#CCC1(N2CCC(N[C@@H]3C[C@H]3c3ccccc3)CC2)CN(Cc2ccccc2)C1 (relative stereo) [Example 4, (1-Benzyl-3-{4-[(trans-2-phenylcyclopropyl)amino]piperidin-1-yl}azetidin-3-yl)acetonitrile] | ≤ 100 |
| N#CCC1(N2CCC(N[C@@H]3C[C@H]3c3ccccc3)CC2)CN(CC(N)=O)C1 [Example 79, 2-[3-(cyanomethyl)-3-(4-{[(1R,2S)-2-phenylcyclopropyl]amino}piperidin-1-yl)azetidin-1-yl]acetamide] | ≤ 100 |
| N#CCC1(N2CCC(N[C@@H]3C[C@H]3c3ccccc3)CC2)CN(c2ncccc2C#N)C1 (relative stereo) [Example 10, 2-(3-(Cyanomethyl)-3-{4-[(trans-2-phenylcyclopropyl)amino]piperidin-1-yl}azetidin-1-yl)nicotinonitrile] | ≤ 100 |
| N#CCC1(N2CCC(N[C@@H]3C[C@H]3c3ccccc3)CC2)CN(c2ccccc2C#N)C1 (relative stereo) [Example 12, 2-(3-(Cyanomethyl)-3-{4-[(trans-2-phenylcyclopropyl)amino]piperidin-1-yl}azetidin-1-yl)benzonitrile] | ≤ 100 |
| O=C(O)CC1(N2CCC(CN[C@@H]3C[C@H]3c3ccccc3)CC2)CCC1 [Example 105, {1-[4-({[(1R,2S)-2-phenylcyclopropyl]amino}methyl)piperidin-1-yl]cyclobutyl}acetic acid] | ≤ 100 |
| N#CCC1(N2CCC(N[C@@H]3C[C@H]3c3ccccc3)CC2)CN(C(=O)N2CCC(O)CC2)C1 [Example 87, [1-[(4-hydroxypiperidin-1-yl)carbonyl]-3-(4-{[(1R,2S)-2-phenylcyclopropyl]amino}piperidin-1-yl)azetidin-3-yl]acetonitrile] | ≤ 100 |
| N#CCC1(N2CCC(N[C@@H]3C[C@H]3c3ccccc3)CC2)CN(C(=O)N2CCOCC2)C1 [Example 86, [1-(morpholin-4-ylcarbonyl)-3-(4-{[(1R,2S)-2-phenylcyclopropyl]amino}piperidin-1-yl)azetidin-3-yl]acetonitrile] | ≤ 100 |
